As usually defined, the kcat is the number of substrate molecules converted per active site and unit of time at saturation. A word on the Km: it is the substrate concentration at which the rate is half of its maximum.

Data set [1] addresses T1, TCPTP (Homo sapiens, UniProt P17706).
T1 construct: fragments of TCPTP (residues: 1–387); His6 (N, cleaved yes); made in house; host or cells: E. coli BL21 (DE3) RIL
T1 sequence (P17706 1-387 isoform P17706-2): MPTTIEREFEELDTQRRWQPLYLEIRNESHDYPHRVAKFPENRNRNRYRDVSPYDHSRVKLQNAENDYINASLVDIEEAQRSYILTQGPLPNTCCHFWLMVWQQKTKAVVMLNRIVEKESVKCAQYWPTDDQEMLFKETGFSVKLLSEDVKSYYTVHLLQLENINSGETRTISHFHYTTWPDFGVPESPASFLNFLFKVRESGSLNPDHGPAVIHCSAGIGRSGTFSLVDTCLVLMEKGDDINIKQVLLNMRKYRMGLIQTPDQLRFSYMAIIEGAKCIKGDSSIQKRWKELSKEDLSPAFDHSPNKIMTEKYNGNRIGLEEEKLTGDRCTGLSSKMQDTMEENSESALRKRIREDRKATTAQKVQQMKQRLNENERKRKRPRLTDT
The experiment in a line: Kinetics of TCPTP with saturating ITGA1 peptide, pEGFR peptide-1 substrate. Particulars: TCPTP saturated with ITGA1 peptide (ITGA1_TR 1 μM; ITGA1_FCT 25 μM), mean ± SE, n = 9. In kind it is biochemical. From the text:
(§1) Polymerase chain reaction (PCR) fragments of TCPTP (residues: 1–387) TCPTPCAT (catalytic domain, residues: 1–288, 1–302 or 1–314), TCPTPTail (C-terminal tail, residues: 289–387 or 303–387) were amplified from full-length human TCPTP (TC45 isoform). TCPTP, TCPTPCAT (residues: 1–288, 1–314), and TCPTPTail (residues: 289–387) fragments were cloned into pMCSG7 including a N-terminal His6-tag using ligation-independent cloning. For all NMR experiments, the PCR fragments of TCPTP, TCPTPCAT (residues: 1–302) and TCPTPTail (residue: 303–387) were sub-cloned into pRP1B as previously described.
(§2) The rate of dephosphorylation of TCPTP and TCPTPCAT (residue 1–314) against 2 phosphotyrosine peptides derived from EGFR was monitored either with or without ITGA1 peptide (ITGA1_FCT & ITGA1_TR) in assay buffer (25 mM Hepes pH 7.4, 50 mM NaCl and 1 mM DTT). Lyophilized powder of all synthetic peptides was dissolved in assay buffer without DTT (phosphopeptides, 5 mM; ITGA1 peptides, 2 mM). For the kinetic analysis, the concentration of the enzyme was fixed at 1 nM while the substrate (phosphopeptides) concentration was varied from 2.5 μM to 160 μM in a total reaction volume of 200 μl. Effect of ITGA1 peptide on TCPTP & TCPTPCAT kinetics were assessed in saturated condition by adding an excess amount of ITGA1 peptide to the reaction mixture (ITGA1_TR = 1 μM; ITGA1_FCT = 25 μM). The reaction was incubated at 30 °C for 30 min and stopped by the addition of 30 μl phosphate reagent (phosphate colorimetric assay kit; Bio Vision) following the manufacturer’s instructions. Data were normalized and fitted using a nonlinear curve, and kinetics parameters (KM and kcat) were calculated from the Michaelis-Menten equation using Graph Pad Prism 9.0. All data points in the enzyme kinetics experiment were measured in triplicate, and the experiments were repeated three times.

In another data set the target is T2, TCPTPCAT (Homo sapiens, UniProt P17706).
T2 construct: TCPTP and TCPTPCAT (residue 1–314) against 2 phosphotyrosine peptides derived from EGFR; His6 (N, cleaved yes); made in house; host or cells: E. coli BL21 (DE3) RIL
T2 sequence (P17706 1-314 isoform P17706-2): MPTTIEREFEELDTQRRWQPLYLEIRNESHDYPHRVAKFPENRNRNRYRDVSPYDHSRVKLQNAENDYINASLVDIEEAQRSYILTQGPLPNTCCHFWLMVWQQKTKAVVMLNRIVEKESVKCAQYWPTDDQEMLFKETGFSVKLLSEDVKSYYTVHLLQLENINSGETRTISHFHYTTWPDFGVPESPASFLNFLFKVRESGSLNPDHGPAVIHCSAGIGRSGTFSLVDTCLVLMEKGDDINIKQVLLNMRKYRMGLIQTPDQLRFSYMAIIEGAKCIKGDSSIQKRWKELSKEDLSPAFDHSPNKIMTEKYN
Put plainly: NMR titration (2D HSQC/TROSY) binding to TCPTPCAT
Particulars: 2D [1H,15N] TROSY, unlabeled ligand added.
From the text: as §1
NMR data were collected on either Bruker NEO 600 MHz or 800 MHz spectrometers equipped with TCI HCN z-gradient cryoprobes at 298 K or 283 K. NMR measurements of TCPTP’s variant construct were recorded using (^1H,^15N)-, (^2H,^15N)-, (^1H,^15N,^13C), or (^2H,^15N,^13C)-labeled protein at a final concentration of 0.6 mM for backbone assignment or 0.1 mM for titration in NMR buffer and 90% H2O/10% D2O. The sequence-specific backbone assignments of TCPTP (residues 1–387), TCPTPCAT (residues 1–302), TCPTPTail (residues 303–387) and other variants were achieved using 3D triple resonance experiments including […], 3D HNCA, 3D HN(CO)CA, 3D HN(CO)CACB, and 3D HNCACB either as HSQC or TROSY variations. All NMR data were processed using TopSpin 4.0.5[44] and analyzed using either CARA (http://www.cara.nmr.ch) and/or CcpNMR[45].

In data set [2] the target is T1, TCPTP. Put plainly: Kinetics of TCPTP with saturating ITGA1 peptide, pEGFR peptide-2 substrate. In kind it is biochemical. Particulars: TCPTP saturated with ITGA1 peptide (ITGA1_TR 1 μM; ITGA1_FCT 25 μM), mean ± SE, n = 9.
From the text: as §1, §2

The target of data set [3] is T1, TCPTP. The experiment in a line: EC50 assay: TCPTP activation by ITGA1 peptides (pEGFR peptide-1 dephosphorylation). Particulars: 1 nM TCPTP, 50 μM pEGFR peptide-1, n = 3. In kind it is biochemical.
From the text: as §1
To determine the EC50, synthesized ITGA1 peptides (ITGA1_FCT, ITGA1_TCT and ITGA1_TR) were mixed with TCPTP, and phosphatase activity was measured using the phospho-EGFR peptides (pEGFR peptide-1) as substrate. Lyophilized powder of all peptides was dissolved in 25 mM Hepes pH 7.4, 50 mM NaCl. For the assay, the TCPTP concentration was fixed at 1 nM and substrate phospho-peptide at 50 μM. […] The absorbance of the reaction mixture was measured at 650 nm, which was converted to the amount of phosphate produced in reaction based on the standard curve generated from the known phosphate concentration. Data obtained from the reaction was fitted using nonlinear regression mode and EC50 values were calculated based on the equation function “Log(agonist) vs. response-variable slope” using Graph Pad Prism 9.0.

For data set [4], the target named is T1, TCPTP. The experiment in a line: Effect of ITGA1, ITGA10 & ITGA11 peptide on TCPTP activity, pEGFR peptide-2. In kind it is biochemical. Particulars: pEGFR peptide-2 substrate, n = 9.
From the text: as §1
Relative activity of TCPTP and its variant mutant construct were measured by adding 1 nM of enzymes against the fixed concentration of substrate (100 μM of phosphopeptides), the reaction was incubated at 30 °C for 30 min in assay buffer before getting stopped as described above. […]
Supplementary Figure 8: TCPTP is distinctively activated by Integrin cytoplasmic tail with positive charge residue clusters. a Sequence alignment of the cytoplasmic tail for the human Integrin family. Positive charge residues are highlighted in blue, while negative charge residues are red; a black box highlights large clusters of positive charge residue. b Effect of ITGA1, ITGA10 & ITGA11 on the catalytic activity of TCPTP, measured against pEGFR peptide-2, derived from the EGFR’s kinase domain activation loop. […]

In data set [5] the test system is pEGFR peptide-2, derived from the EGFR's kinase domain activation loop. Put plainly: Phosphatase kinetic analysis (Michaelis-Menten) of TCPTP constructs, pEGFR peptide-2 substrate. In kind it is biochemical. On the procedure: as §2
Supplementary Table 2: Enzymatic activity assay (Michaelis-Menten analysis); substrate pEGFR peptide-2, derived from the EGFR’s kinase domain activation loop. Calculated kinetic parameter are presented as the mean of nine independent reactions (n=9; mean ± SE). Source data are provided as a Source Data file. kcat (s-1) Km (µM) kcat/Km (µM -1s-1)

Data set [6] is described as follows: DiFMUP assay of TCPTP, TCPTPCAT, PTP1B and PTP1BCAT. In kind it is biochemical. The conditions noted are these: 10 μM DiFMUP, 2.5 nM protein, pH 7.4, 25 min, fluorescence 455 nm; n = 9. On the procedure:
Activity of TCPTP, TCPTPCAT (residue 1–314) either with or without ITGA1 peptides (ITGA1_TR; 1:50 molar ratio, ITGA1_FCT; 1:1000 molar ratio), PTP1B (residue 1–400) and PTP1BCAT (residue 1–321) were assessed in assay buffer (25 mM Hepes pH 7.4, 50 mM NaCl, and 1 mM DTT). The assay was performed in black polystyrene flat bottom 96-well plate. The concentration of DiFMUP was fixed at 10 μM and protein concentration at 2.5 nM in total reaction volume of 100 μl. The emitted fluorescent signal at 455 nm was continuously recorded for 25 min using a Tecan Infinite M1000 pro microplate reader (Tecan i-control, 2.0.10.0).

Data set [7] concerns pEGFR peptide-1, derived from the cytoplasmic tail of EGFR. Put plainly: Phosphatase kinetic analysis (Michaelis-Menten) of TCPTP constructs, pEGFR peptide-1 substrate. In kind it is biochemical. The protocol:
as §2

The mark [8] stands for this setting: pEGFR peptide-2 2.5-160 μM, 1 nM enzyme, pH 7.4, 30 °C 30 min, mean ± SE, n = 9.

On to “KIGFFKRPLKKKMEK [ITGA1_FCT, ITGA1 full cytoplasmic tail: …]”, for which the kcat at TCPTP [1] (pEGFR peptide-1, 1 nM enzyme, pH 7.4, 30 °C 30 min) was 26.6 ± 0.8 s⁻¹; at TCPTP [2] (pEGFR peptide-2, pH 7.4, 30 °C 30 min) it was 30.2 ± 1.2 s⁻¹. In addition, the Km at TCPTP [1] (pEGFR peptide-1, pH 7.4, 30 °C) turned out to be 20.2 ± 1.9 µM; at TCPTP [2] (pEGFR peptide-2), 32.8 ± 3.7 µM. Also, the kcat/Km was determined as 1.3 ± 0.1 µM⁻¹ s⁻¹ on TCPTP [1] (pEGFR peptide-1) and 0.9 ± 0.1 µM -1s-1 at TCPTP [2] (pEGFR peptide-2). In addition, the “NMR titration: CSPs in (2H,15N)-labeled TCPTPCAT” value on TCPTPCAT is on record as “significant CSPs in the same residues”. For the same molecule, the “activation relative to ITGA1_TCT” value on TCPTP [3] is listed as “functions better than ITGA1_TCT”.
Take KLGFFRSARRRREPGLDPTPKVLE [ITGA11]: the TCPTP activation result on TCPTP [4] is reported as “efficiently activates TCPTP”.
In the case of KLGFFAHKKIPEEEKREEKLEQ [ITGA10], on TCPTP [4], the TCPTP activation entry was “fails to do so”.

B1: TCPTP: T-Cell Protein Tyrosine Phosphatase, TC45 isoform, full-length residues 1–387 (protein)
chain: T1 sequence (P17706 1-387 isoform P17706-2)
modifications: left off: His6, N-terminal, cleaved
Take B1: the Km in data set [5] (setting [8]) stood at 21.2 ± 2.6 µM; in data set [7] (pEGFR peptide-1 2.5-160 μM, 1 nM enzyme, pH 7.4, 30 °C 30 min, mean ± SE, n = 9 (TCPTPCAT, TCPTP) or 12 (TCPTPC-term, TCPTPL1)) it was 12.4 ± 0.6 µM. Further, the kcat is 13.8 ± 0.5 s⁻¹ in data set [5] (setting [8]) and 12.2 ± 0.2 s⁻¹ in data set [7] (pEGFR peptide-1 2.5-160 μM, 1 nM enzyme, 25 mM Hepes pH 7.4, 50 mM NaCl, 1 mM DTT, 30 °C 30 min, mean ± SE, n = 9 (TCPTPCAT, TCPTP) or 12 (TCPTPC-term, TCPTPL1)). The kcat/Km came to 0.6 ± 0.1 µM -1s-1 in data set [5] (pEGFR peptide-2, mean ± SE, n = 9) and 1.0 ± 0.1 µM⁻¹ s⁻¹ in data set [7] (pEGFR peptide-1, pH 7.4, 30 °C, mean ± SE, n = 9 (TCPTPCAT, TCPTP) or 12 (TCPTPC-term, TCPTPL1)). Moreover, the “rate of dephosphorylation, fold slower than TCPTPCAT” value in data set [5] (pEGFR peptide-2, vs TCPTPCAT) was ~ 3 fold; in data set [7] (pEGFR peptide-1, vs TCPTPCAT), ~ 3 fold. The “DiFMUP dephosphorylation, times slower than with TCPTPCAT” value in data set [6] is ~ 3 times.

The record behind these values is article PMC8748766, “The catalytic activity of TCPTP is auto-regulated by its intrinsically disordered tail and activated by Integrin alpha-1” (Nature Communications, 2022).
